Each block holds one compound with its values, some of them ahead of it.
How the values were obtained:
[1] = test system: α1 adrenergic receptors (rat cerebral cortex); assay: Radioligand binding assay, adrenergic α1 receptors; conditions: test compound 1×10^−6 M
From the text: The specific ligand binding to the receptors is defined as the difference between the total binding and the non-specific binding determined in the presence of the excess of unlabelled ligand.
The results are expressed as a percent of control specific binding ((measured specific binding/control specific binding)×100) and as a percent inhibition of control specific binding (100−((measured specific binding/control specific binding)×100)) obtained in the presence of the test compounds. The specific ligand binding to the receptors is defined as the difference between the total binding and the nonspecific binding determined in the presence of an excess of unlabelled ligand. Scintillation counting was the method of detection of ligand binding. The IC50 values (concentration causing a half-maximal inhibition of control specific binding) were determined by non-linear regression analysis of the competition curves generated with mean replicate values using Hill equation curve fitting (Y=D+[(A−D)/(1+(C/C50)nH)], where Y=specific binding, D=minimum specific binding, A=maximum specific binding, C=compound concentration, C50=IC50, and nH=slope factor). […] The inhibition constants (Ki) were calculated using the Cheng Prusoff equation (Ki=IC50/(1+(L/KD)), where L=concentration of radioligand in the assay, and KD=affinity of the radioligand for the receptor). A scatchard plot was used to determine the Kd.

5-HT6 receptor = molecular target: T1, 5-HT6 receptor (Homo sapiens, UniProt P50406); assay: Radioligand binding assay, serotoninergic 5-HT6 receptors; conditions: binding assay result in %, Table 5a;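 further: test compound at 1 µM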
T1 construct: purchased PerkinElmer
How it was run: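 Values are Ki from Cheng–Prusoff, taking IC50 from Hill nonlinear regression of competition curves and KD from a Scatchard plot. Specific binding was total minus binding with excess unlabelled ligand. Radioligand displacement was detected by scintillation counting, and data were also reported as percent of control specific binding.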

[2] = molecular target: T2, serotonin transporter (SERT) (Homo sapiens, UniProt P31645); assay: Radioligand binding assay, serotonin transporter (SERT); conditions: binding assay, test compound 1×10^−6 M
T2 construct: expressed in transfected cells; host or cells: CHO cells
How it was run: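 Radioligand competition binding with scintillation detection; specific binding is total minus binding under excess unlabelled ligand. Reported as % of control specific binding or % inhibition; IC50 from Hill-equation non-linear regression of competition curves, and Ki via Cheng-Prusoff using radioligand concentration and Scatchard-derived KD.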

[3] = molecular target: dopaminergic receptors D2 (Homo sapiens, UniProt P14416); assay: Radioligand binding assay, dopaminergic D2 receptors; conditions: binding assay, test compound 1×10^−6 M
How it was run: (§1)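 Competition radioligand binding at human D2, D3 and D4.4 receptors, detected by scintillation counting; nonspecific binding defined with excess unlabelled ligand. Results as percent inhibition of control specific binding; IC50 by Hill-equation nonlinear regression; Ki via Cheng-Prusoff, with radioligand KD from Scatchard plot.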

5-HT2A receptor = molecular target: T3, 5-HT2A receptor (Homo sapiens, UniProt P28223); assay: Radioligand binding assay, serotoninergic 5-HT2A receptors; conditions: binding assay result in %, Table 5a
T3 construct: purchased PerkinElmer
How it was run: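 Radioligand competition binding with scintillation counting; nonspecific binding defined by excess unlabelled ligand. Data as percent inhibition of control specific binding. IC50 by Hill-equation fit of competition curves; Ki by Cheng-Prusoff, with radioligand Kd from Scatchard plot.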

5-HT7 receptor = molecular target: T4, 5-HT7 receptor (Homo sapiens, UniProt P34969); assay: Radioligand binding assay, serotoninergic 5-HT7 receptors; conditions: binding assay result in %, Table 5a;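 further: test compound at 1 µM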
T4 construct: purchased PerkinElmer
How it was run: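 Competition binding at human 5-HT7 receptors with a radioligand, detected by scintillation counting; non-specific binding was defined with excess unlabelled ligand. IC50 came from Hill-equation fits of competition curves, and Ki from Cheng–Prusoff using radioligand concentration and Scatchard-derived KD.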

[4] = molecular target: T5, 5-HT1A receptor (rat hippocampus) (Rattus norvegicus, UniProt P19327); assay: Radioligand binding assay, serotoninergic 5-HT1A receptors; conditions: binding assay result in %, Table 5a;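 further: test compound at 1 µM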
T5 construct: hippocampus; from tissue; host or cells: rat hippocampus
T5 sequence (P19327 1-422): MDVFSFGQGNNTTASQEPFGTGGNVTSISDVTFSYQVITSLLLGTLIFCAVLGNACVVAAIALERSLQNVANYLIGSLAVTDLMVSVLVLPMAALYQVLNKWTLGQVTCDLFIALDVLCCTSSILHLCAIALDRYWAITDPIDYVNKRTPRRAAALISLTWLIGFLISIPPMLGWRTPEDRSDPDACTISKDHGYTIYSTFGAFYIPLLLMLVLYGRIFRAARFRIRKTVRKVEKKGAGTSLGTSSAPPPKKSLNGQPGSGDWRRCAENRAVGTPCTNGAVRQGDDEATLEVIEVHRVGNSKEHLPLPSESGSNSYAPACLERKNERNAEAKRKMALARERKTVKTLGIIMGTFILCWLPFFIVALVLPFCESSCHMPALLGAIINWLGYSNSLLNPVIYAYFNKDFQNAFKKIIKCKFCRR

[5] = molecular target: dopaminergic receptors D3 (Homo sapiens, UniProt P35462); assay: Radioligand binding assay, dopaminergic D3 receptors; conditions: test compound 1×10^−6 M
How it was run: as §1

T1 sequence (P50406 whole entry): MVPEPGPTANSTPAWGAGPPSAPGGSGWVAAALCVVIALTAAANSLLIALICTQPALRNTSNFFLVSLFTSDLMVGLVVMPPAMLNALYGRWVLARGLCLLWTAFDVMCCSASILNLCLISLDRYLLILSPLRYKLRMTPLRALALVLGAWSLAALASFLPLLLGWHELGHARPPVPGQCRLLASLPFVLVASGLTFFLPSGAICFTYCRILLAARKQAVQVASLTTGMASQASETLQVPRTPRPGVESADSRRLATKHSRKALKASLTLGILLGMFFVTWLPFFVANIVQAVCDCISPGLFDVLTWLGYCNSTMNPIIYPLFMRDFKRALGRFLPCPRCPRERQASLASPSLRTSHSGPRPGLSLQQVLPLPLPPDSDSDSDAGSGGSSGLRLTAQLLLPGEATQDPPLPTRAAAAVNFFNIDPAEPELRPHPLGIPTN
dopaminergic receptors D2, sequence (P14416 whole entry): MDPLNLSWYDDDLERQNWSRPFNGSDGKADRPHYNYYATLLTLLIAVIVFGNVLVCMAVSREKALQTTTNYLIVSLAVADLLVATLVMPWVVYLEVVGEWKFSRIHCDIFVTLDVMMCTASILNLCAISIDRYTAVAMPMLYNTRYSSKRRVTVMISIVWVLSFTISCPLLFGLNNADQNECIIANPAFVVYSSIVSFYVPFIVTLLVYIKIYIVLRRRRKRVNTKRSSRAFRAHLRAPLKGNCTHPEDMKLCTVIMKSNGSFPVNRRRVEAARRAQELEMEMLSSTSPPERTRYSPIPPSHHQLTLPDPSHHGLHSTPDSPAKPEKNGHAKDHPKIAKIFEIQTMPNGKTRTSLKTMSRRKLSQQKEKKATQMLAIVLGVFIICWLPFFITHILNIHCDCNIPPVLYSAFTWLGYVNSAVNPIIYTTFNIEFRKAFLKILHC
T4 sequence (P34969 whole entry): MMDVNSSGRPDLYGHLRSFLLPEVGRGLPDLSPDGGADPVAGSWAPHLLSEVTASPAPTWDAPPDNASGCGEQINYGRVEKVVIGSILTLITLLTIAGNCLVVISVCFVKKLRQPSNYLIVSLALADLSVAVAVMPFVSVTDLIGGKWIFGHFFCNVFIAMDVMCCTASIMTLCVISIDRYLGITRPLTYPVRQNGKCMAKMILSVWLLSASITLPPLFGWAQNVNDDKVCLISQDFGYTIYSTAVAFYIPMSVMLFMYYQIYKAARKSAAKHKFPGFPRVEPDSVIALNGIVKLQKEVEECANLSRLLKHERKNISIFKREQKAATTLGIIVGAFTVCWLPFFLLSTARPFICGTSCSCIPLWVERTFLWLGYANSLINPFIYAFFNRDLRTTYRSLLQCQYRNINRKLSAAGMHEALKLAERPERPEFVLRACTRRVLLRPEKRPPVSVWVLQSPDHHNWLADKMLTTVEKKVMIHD
dopaminergic receptors D3, sequence (P35462 whole entry): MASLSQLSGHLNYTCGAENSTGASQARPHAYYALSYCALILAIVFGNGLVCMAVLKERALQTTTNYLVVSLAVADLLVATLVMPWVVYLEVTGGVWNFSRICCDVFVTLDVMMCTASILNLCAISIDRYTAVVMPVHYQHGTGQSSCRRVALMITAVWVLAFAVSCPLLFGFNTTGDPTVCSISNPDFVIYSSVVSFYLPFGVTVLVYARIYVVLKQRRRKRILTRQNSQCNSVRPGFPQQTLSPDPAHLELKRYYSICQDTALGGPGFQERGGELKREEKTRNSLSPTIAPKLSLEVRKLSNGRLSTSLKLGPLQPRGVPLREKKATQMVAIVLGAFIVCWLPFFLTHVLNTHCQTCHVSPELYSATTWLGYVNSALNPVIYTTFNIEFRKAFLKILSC
T3 sequence (P28223 whole entry): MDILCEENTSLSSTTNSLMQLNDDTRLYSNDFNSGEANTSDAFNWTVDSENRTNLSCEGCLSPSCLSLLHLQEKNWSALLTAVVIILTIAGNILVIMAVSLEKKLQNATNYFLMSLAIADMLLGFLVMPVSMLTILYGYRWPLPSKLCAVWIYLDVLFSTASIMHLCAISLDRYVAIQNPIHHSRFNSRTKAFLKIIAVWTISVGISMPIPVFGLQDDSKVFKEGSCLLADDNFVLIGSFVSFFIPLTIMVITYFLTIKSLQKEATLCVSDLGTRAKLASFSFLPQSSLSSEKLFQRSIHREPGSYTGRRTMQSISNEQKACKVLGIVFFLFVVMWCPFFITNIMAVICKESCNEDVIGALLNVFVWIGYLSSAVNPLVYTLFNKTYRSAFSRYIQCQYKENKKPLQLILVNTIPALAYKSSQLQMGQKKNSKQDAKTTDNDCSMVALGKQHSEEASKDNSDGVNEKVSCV
T2 sequence (P31645 whole entry): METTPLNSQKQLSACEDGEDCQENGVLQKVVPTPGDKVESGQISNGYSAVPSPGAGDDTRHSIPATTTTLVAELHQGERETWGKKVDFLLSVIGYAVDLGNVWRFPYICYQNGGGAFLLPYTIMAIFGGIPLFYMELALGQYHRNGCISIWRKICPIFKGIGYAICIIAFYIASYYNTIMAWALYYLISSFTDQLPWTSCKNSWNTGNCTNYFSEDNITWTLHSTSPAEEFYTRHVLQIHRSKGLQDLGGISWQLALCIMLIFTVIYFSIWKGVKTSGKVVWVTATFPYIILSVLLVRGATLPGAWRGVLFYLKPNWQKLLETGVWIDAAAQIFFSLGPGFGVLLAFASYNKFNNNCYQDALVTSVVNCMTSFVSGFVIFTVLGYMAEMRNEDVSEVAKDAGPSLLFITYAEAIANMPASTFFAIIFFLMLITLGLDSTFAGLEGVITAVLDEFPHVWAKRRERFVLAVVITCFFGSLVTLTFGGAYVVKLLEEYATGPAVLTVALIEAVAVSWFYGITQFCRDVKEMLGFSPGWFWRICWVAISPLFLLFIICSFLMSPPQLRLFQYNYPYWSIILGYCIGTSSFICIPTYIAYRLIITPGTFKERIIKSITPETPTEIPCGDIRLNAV

Compound: O=S(=O)(NCC1CCN(CCCc2noc3cc(F)ccc23)C1)c1ccc(Cl)c(Cl)c1 (stereo not drawn) [Compound 253, 3,4-Dichloro-N-[[1-[3-(6-fluoro-1,2-benzoxazol-3-yl)propyl]pyrrolidin-3-yl]methyl]benzenesulphonamide]
α1 [%] [1]: 94%
inhibition at 1 µM (5-HT6 receptor): 101%
inhibition at 1 µM [2]: 12%
inhibition at 1 µM [3]: 87%
inhibition at 1 µM (5-HT2A receptor): 99%
inhibition at 1 µM (5-HT7 receptor): 97%
inhibition at 1 µM [4]: 34%
inhibition at 1 µM [5]: 55%

Compound: O=S(=O)(NCC1CN(CCOc2cccc3c2OCCO3)C1)c1ccc(F)cc1 [Compound 182, N-[[1-[2-(2,3-Dihydro-1,4-benzodioxin-5-yloxy)ethyl]azetidin-3-yl]methyl]-4-fluoro-benzenesulphonamide]
α1 [%] [1]: 78%
inhibition at 1 µM (5-HT6 receptor): 31%
inhibition at 1 µM [2]: -7%
inhibition at 1 µM [3]: 33%
inhibition at 1 µM (5-HT2A receptor): 61%
inhibition at 1 µM (5-HT7 receptor): 95%
inhibition at 1 µM [4]: 63%
inhibition at 1 µM [5]: 45%

Compound: O=S(=O)(NCC1CN(CCOc2cccc3ccccc23)C1)c1cccc2ccccc12 [Compound 168, N-[[1-[2-(1-Naphthyloxy)ethyl]azetidin-3-yl]methyl]naphthalene-1-sulphonamide]
α1 [%] [1]: 31%
inhibition at 1 µM (5-HT6 receptor): 93%
inhibition at 1 µM [2]: 25%
inhibition at 1 µM [3]: 64%
inhibition at 1 µM (5-HT2A receptor): 96%
inhibition at 1 µM (5-HT7 receptor): 92%
inhibition at 1 µM [4]: 79%
inhibition at 1 µM [5]: 94%

Compound: O=S(=O)(NCC1CN(CCOc2cccc3ccccc23)C1)c1cc2ccccc2s1 [Compound 163, N-[[1-[2-(1-Naphthyloxy)ethyl]azetidin-3-yl]methyl]benzothiophene-2-sulphonamide]
α1 [%] [1]: 27%
inhibition at 1 µM (5-HT6 receptor): 87%
inhibition at 1 µM [2]: 45%
inhibition at 1 µM [3]: 73%
inhibition at 1 µM (5-HT2A receptor): 99%
inhibition at 1 µM (5-HT7 receptor): 88%
inhibition at 1 µM [4]: 88%
inhibition at 1 µM [5]: 99%

Compound: O=S(=O)(NC1CCN(CCCc2noc3cc(F)ccc23)C1)c1cccc(Cl)c1 (stereo not drawn) [Compound 9, 3-Chloro-N-[1-[3-(6-fluoro-1,2-benzoxazol-3-yl)propyl]pyrrolidin-3-yl]benzenesulphonamide]
α1 [%] [1]: 83%
inhibition at 1 µM (5-HT6 receptor): 75%
inhibition at 1 µM [2]: 2%
inhibition at 1 µM [3]: 88%
inhibition at 1 µM (5-HT2A receptor): 95%
inhibition at 1 µM (5-HT7 receptor): 90%
inhibition at 1 µM [4]: 12%
inhibition at 1 µM [5]: 30%

Compound: O=S(=O)(NC1CCN(CCCc2noc3cc(F)ccc23)C1)c1cccc(O)c1 (stereo not drawn) [Compound 18, N-[1-[3-(6-Fluoro-1,2-benzoxazol-3-yl)propyl]pyrrolidin-3-yl]-3-hydroxybenzenesulphonamide]
α1 [%] [1]: 98%
inhibition at 1 µM (5-HT6 receptor): 59%
inhibition at 1 µM [2]: 37%
inhibition at 1 µM [3]: 73%
inhibition at 1 µM (5-HT2A receptor): 85%
inhibition at 1 µM (5-HT7 receptor): 94%
inhibition at 1 µM [4]: 18%
inhibition at 1 µM [5]: 31%

Compound: O=S(=O)(NC1CCN(CCCc2noc3cc(F)ccc23)C1)c1cccc(C(F)(F)F)c1 (stereo not drawn) [Compound 15, N-[1-[3-(6-Fluoro-1,2-benzoxazol-3-yl)propyl]pyrrolidin-3-yl]-3-(trifluoromethyl)benzenesulphonamide]
α1 [%] [1]: 89%
inhibition at 1 µM (5-HT6 receptor): 83%
inhibition at 1 µM [2]: -7%
inhibition at 1 µM [3]: 75%
inhibition at 1 µM (5-HT2A receptor): 57%
inhibition at 1 µM (5-HT7 receptor): 48%
inhibition at 1 µM [4]: 18%
inhibition at 1 µM [5]: 14%

α1 [%] [1]: 78%
5-HT6 [%] (5-HT6 receptor): 32%
SERT [%] [2]: 16%
D2 [%] [3]: 62%
5-HT2A [%] (5-HT2A receptor): 87%
5-HT7 [%] (5-HT7 receptor): 100%
5-HT1A [%] [4]: 92%
D3 [%] [5]: 67%
Compound: O=S(=O)(NC1CCN(CCOc2cccc3c2OCCO3)C1)c1cccc2ccccc12 (stereo not drawn) [Compound 98, N-[1-[2-(2,3-Dihydro-1,4-benzodioxan-8-yloxy)ethyl]pyrrolidin-3-yl]-naphthalene-1-sulphonamide]

Compound: O=S(=O)(NCC1CCN(CCOc2ccc3cc[nH]c3c2)CC1)c1cccc2ccccc12 [Compound 71, N-[[1-[2-(1H-Indol-6-yloxy)ethyl]-4-piperidine]methyl]naphthalene-1-sulphonamide]
α1 [%] [1]: 36%
5-HT6 [%] (5-HT6 receptor): 80%
SERT [%] [2]: 49%
D2 [%] [3]: 27%
5-HT2A [%] (5-HT2A receptor): 26%
5-HT7 [%] (5-HT7 receptor): 31%
5-HT1A [%] [4]: 28%
D3 [%] [5]: −1%

Compound: O=S(=O)(NCC1CCN(CCCc2noc3cc(F)ccc23)CC1)c1cccc2ccccc12 [Compound 37, N-[[1-[3-(6-Fluoro-1,2-benzoxazol-3-yl)propyl]-4-piperidine]methyl]-naphthalene-1-sulphonamide]
α1 [%] [1]: 96%
5-HT6 [%] (5-HT6 receptor): 97%
SERT [%] [2]: 30%
D2 [%] [3]: 83%
5-HT2A [%] (5-HT2A receptor): 56%
5-HT7 [%] (5-HT7 receptor): 94%
5-HT1A [%] [4]: 29%
D3 [%] [5]: 66%

Compound: O=S(=O)(NCC1CN(CCOc2cccc3c2OCCO3)C1)c1ccc(Cl)cc1 [Compound 179, 4-Chloro-N-[[1-[2-(2,3-dihydro-1,4-benzodioxin-5-yloxy)ethyl]azetidin-3-yl]methyl]benzenesulphonamide]
α1 [%] [1]: 61%
inhibition at 1 µM (5-HT6 receptor): -15%
inhibition at 1 µM [2]: -8%
inhibition at 1 µM [3]: 6%
inhibition at 1 µM (5-HT2A receptor): 57%
inhibition at 1 µM (5-HT7 receptor): 90%
inhibition at 1 µM [4]: 92%
inhibition at 1 µM [5]: 40%

Compound: Cc1c(S(=O)(=O)NCC2CN(CCOc3cccc4ccccc34)C2)sc2ccc(F)cc12 [Compound 166, 5-Fluoro-3-methyl-N-[[1-[2-(1-naphthyloxy)ethyl]azetidin-3-yl]methyl]benzothiophene-2-sulphonamide]
α1 [%] [1]: 23%
inhibition at 1 µM (5-HT6 receptor): 98%
inhibition at 1 µM [2]: 32%
inhibition at 1 µM [3]: 82%
inhibition at 1 µM (5-HT2A receptor): 100%
inhibition at 1 µM (5-HT7 receptor): 97%
inhibition at 1 µM [4]: 78%
inhibition at 1 µM [5]: 101%

Compound: O=S(=O)(NC1CCN(CCCc2c[nH]c3ccc(Cl)cc23)C1)c1ccc(F)cc1 (stereo not drawn) [Compound 83, N-[1-[3-(5-Chloro-1H-indol-3-yl)propyl]pyrrolidin-3-yl]-4-fluoro-benzenesulphonamide]
α1 [%] [1]: 23%
inhibition at 1 µM (5-HT6 receptor): 84%
inhibition at 1 µM [2]: 78%
inhibition at 1 µM [3]: 44%
inhibition at 1 µM (5-HT2A receptor): 82%
inhibition at 1 µM (5-HT7 receptor): 86%
inhibition at 1 µM [4]: 104%
inhibition at 1 µM [5]: 76%

Compound: Cc1c(S(=O)(=O)NCC2CCN(CCOc3cccc4ccccc34)C2)sc2ccc(F)cc12 (stereo not drawn) [Compound 271, 5-Fluoro-3-methyl-N-[[1-[2-(1-naphthyloxy)ethyl]pyrrolidin-3-yl]methyl]benzothiophene-2-sulphonamide]
α1 [%] [1]: −1%
inhibition at 1 µM (5-HT6 receptor): 76%
inhibition at 1 µM [2]: 40%
inhibition at 1 µM [3]: 45%
inhibition at 1 µM (5-HT2A receptor): 97%
inhibition at 1 µM (5-HT7 receptor): 104%
inhibition at 1 µM [4]: 82%
inhibition at 1 µM [5]: 93%

α1 [%] [1]: 70%
5-HT6 [%] (5-HT6 receptor): 64%
SERT [%] [2]: 36%
D2 [%] [3]: 38%
5-HT2A [%] (5-HT2A receptor): 97%
5-HT7 [%] (5-HT7 receptor): 90%
5-HT1A [%] [4]: 96%
D3 [%] [5]: 78%
Compound: O=S(=O)(NC1CCN(CCOc2cccc3c2OCCO3)C1)c1ccc2ccccc2c1 (stereo not drawn) [Compound 99, N-[1-[2-(2,3-Dihydro-1,4-benzodioxan-8-yloxy)ethyl]pyrrolidin-3-yl]-naphthalene-2-sulphonamide]

From patent US20140135310A1, “SULPHONAMIDE DERIVATIVES OF ALICYCLIC AMINES FOR THE TREATMENT OF CENTRAL NERVOUS SYSTEM DISEASES” (Adamed Sp. z o.o., priority 2011, published 2014)
